The source of these data is US20150366839A1, “Schisantherin A for the treatment of neurodegenerative diseases” (priority 2014, published 2015).

Where two headings read alike, the source gives them in different places.

Data set [1] deals with SH-SY5Y cells. Briefly: MTT cytotoxicity of the five lignans. Format: cell-based. As to the method: Human neuroblastoma SH-SY5Y cells were purchased from the American Type Culture Collection (ATCC, Manassas, Va., USA) and cultured in a humidified 5% (v/v) CO2 atmosphere in 37° C. in Dulbecco's Modified Eagle Medium (DMEM) (Life technologies, NY, USA) supplemented with 10% FBS, 1% penicillin (100 U/mL) and streptomycin (100 μg/mL). All experiments were carried out 48 h after the cells were seeded.
Cell viability was determined by 3-(4,5-dimethyl-2-thiazolyl) 2,5-diphenyl-2H-tetrazolium bromide (MTT) assay (Sigma-Aldrich, USA). SH-SY5Y cells were seeded in 96-well plates (1×10^4 cells/well) for 48 h. SH-SY5Y cells were pre-treated with different concentrations of the five lignans (i.e. Schizandrin A, Schizandrin B, SC, Schizandrol A and SchiA) for 12 h and the cell viability was checked by MTT assay. Otherwise, SH-SY5Y cells were pre-treated with different concentrations of the five lignans for 12 h and then exposed to 400 μM 6-OHDA for 4 h. Cells were incubated at 37° C. for 4 h in 0.5 mg/mL MTT solution (prepared in serum free DMEM medium). The medium was then removed, and 100 μL of DMSO was added to each well to dissolve the violet-formazan crystals. The absorbance at 570 nm with 655 nm as a reference wavelength was measured by a multi-label counter (Wallac VICTOR3TMV, Perkin Elmer, Netherlands). Cell viability was expressed as a percentage of the value of the cells without 6-OHDA treatment. The LC50 and EC50 were calculated by GraphPad Prism V5.0 (GraphPad Software, Inc., San Diego, Calif.).
To evaluate the cytotoxicity of five selected lignans of S. chinensis, SH-SY5Y cells were treated with various concentrations of the tested compounds for 12 h and the cell viability was measured using the MTT assay.
To evaluate the cytotoxicity of five selected lignans of S. chinensis, SH-SY5Y cells were treated with various concentrations of the tested compounds for 12 h and the cell viability was measured using the MTT assay. […] To further study the neuroprotective activities of the five lignans in vitro, cells were treated with various concentrations of the tested compounds for 12 h before exposed to MPP^+. […] Values represent mean±S.D. ###P<0.005 versus control group; *p<0.05, **p<0.01 and *** p<0.005 versus MPP group. […] The therapeutic index of SchiA and SC were 14.9 and 8.8, respectively.

Data set [2] concerns TH-positive neurons in the SNpc. Format: in vivo, C57BL/6 mice. Conditions: for neuroprotective effect on TH-positive neurons: then MPTP. As to the method:
Male C57BL/6 mice (20±2 g body weight, 6-8 weeks of age) were purchased from the Laboratory Animal Center of Guangdong Province and were fed six animals per cage, under a 12 h light/dark cycle with ad libitum access to food and water. Mice were handled daily and allowed 3 days to acclimate before each treatment. Six groups of mice (n=7/group, total 42 mice) were assigned for the neuroprotective study in vivo. SchiA at different concentrations (30, 100 or 300 mg/kg/day), positive control drug (Selegiline, 10 mg/kg/day) or vehicle (Tween-80/ml propylene glycol/alcohol/5% PVA, 1:1:1:17, v/v/v/v) were administered by intragastric gavage (i.g.) daily for 14 days. Then mice were injected by intraperitoneal (i.p.) with 30 mg/kg MPTP hydrochloride (Sigma-Aldrich) or physiological saline daily on days 15-19 (total 5 days). In order to allow for the full conversion of MPTP to its active metabolite MPP^+, a further 3 days of resting period followed (Levites, Weinreb et al. 2001). All animal experiments were conducted according to the ethical guidelines for animal experiment of Jinan University. The experimental protocols were approved by the Ethics Committee for Animal Experiments of Jinan University (permit number 20110810).
Three days after MPTP treatment, animals were anesthetized by i.p. administration of […] chloral hydrate (10% (w/v) dissolved in distilled water) and perfused intracardially with 100 mL PBS (0.1 mmol/L, pH 7.4) followed by 150 mL 4% paraformaldehyde (PFA) in PBS. After intracardial perfusion, brains were collected and post-fixed in 4% PFA for another 24 h at 4° C., embedded in paraffin, and cut into 6 μm coronal sections encompassing the entire SNpc. As the decrease of TH-positive neurons in response to MPTP treatment is the most prominent at medial levels of the SNpc (Hayley, Crocker et al. 2004), the inventors selected the sections from the area encompassed between −3.08 and −3.20 from bregma to perform immunohistochemisty. Immunohistochemistry of brain tissues was performed as previously described (He, Yamauchi et al. 2008; Yokoyama, Takagi et al. 2008) with minor modifications. Sections were deparaffinized in xylene and rehydrated in a graded ethanol series. […] Non-specific protein binding was blocked with 10% bovine serum in PBS (0.01 M, pH 7.4). Between each treatment, the slides were washed at least three times with deionized water for 5 minutes. […] The results were analyzed by counting the numbers of TH-positive cells at ×10 magnifications on a stereomicroscope (BX51, Olympus Corp. Japan). TH-positive cells in 6 position-matched sections of each mouse were counted manually by operator who was blinded to the drug treatment. […]

One may read the CC50 as the concentration at which the toxic effect on the cells reaches its halfway point. In data set [1], `COc1cc2c(c(OC)c1OC)-c1c(cc3c(c1OC)OCO3)C[C@H](C)[C@](C)(O)[C@H]2OC(=O)c1ccccc1` [SchiA, Schisantherin A] yielded a CC50 of 121 µM. Also, the “neuroprotective effect on TH-positive neurons” value in data set [2] (30 mg/kg) and in data set [2] (100 mg/kg) was “did not exert statistical significant neuroprotective effect” each time. Besides, the “TH-positive neurons in SNpc” value in data set [2] (300 mg/kg/day i.g. 14 days, then MPTP 30 mg/kg i.p. 5 days) is on record as 82±12 cells/section.
